Source: patent US20140323420A1, “REDUCING TRANSMISSION OF SEXUALLY TRANSMITTED INFECTIONS” (University of Rochester, priority 2011, published 2014)
Entries after “also recorded” stand apart in the source; their conditions may differ. Read-outs that look alike come from different tables or passages of the source.

Experiments:
SEVI fibrils [1] = biological target: T1, SEVI fibrils (Homo sapiens, UniProt P15309); experiment: Example 4: centrifugation fluorescence binding assay of 1-5 to SEVI fibrils; conditions: Table 3, 5% DMSO/PBS
T1 construct: PAP248-286 peptide was synthesized by New England Peptide; purchased New England Peptide (Gardner, Mass.); host or cells: chemical synthesis
T1 sequence (P15309 248-286 limits assumed): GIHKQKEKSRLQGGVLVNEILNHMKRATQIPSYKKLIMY
Source text: Each experiment was repeated at least 3 times. Error bars represent standard deviations from the mean.
When the Kd values of compounds 1-5 to SEVI fibrils was examined, a similar trend for improved binding of the oligomeric BTA compounds was observed (Table 3). The greatest improvement in binding as a function of increasing valence number in the oligomer was observed when comparing the monomer to dimer and the tetramer to pentamer.

Aβ(1-42) fibrils = biological target: T2, Aβ(1-42) fibrils (Homo sapiens, UniProt P05067); experiment: Example 4: centrifugation fluorescence binding assay of 1-5 to Aβ(1-42) fibrils
T2 construct: Aβ(1-42) peptide was purchased from GL Biochem (Shanghai, China) Ltd; purchased GL Biochem (Shanghai, China) Ltd; host or cells: synthetic peptide; fibrils grown in PBS at 37 °C for 24 h
T2 sequence (P05067 672-713 limits assumed): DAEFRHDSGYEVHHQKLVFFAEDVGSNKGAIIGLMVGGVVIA
Description: The binding of BTA monomer oligomer to amyloid fibrils was measured according to the centrifugation assay described by Levine for BTA-1 to Aβ fibrils (Levine et al., Amyloid 12:5-14 (2005)). […] These incubations were performed in duplicate runs and allowed to equilibrate for 12 hours at room temperature. After equilibration, each solution was centrifuged at 16,000 g for 20 minutes at 4° C. The supernatants were separated from the pelleted fibrils, and 220 μL of fresh 5% DMSO/PBS was added to re-suspend the pellets. 100 μl aliquots of each re-suspended pellet was pipetted into a cuvette (ultramicrocuvette, 10-mm light path, Hellma®, Müllheim, Germany), and the fluorescence of the bound molecule was determined at 355 nm excitation and 420 nm emission using a spectrofluorometer (Photon Technology International, Inc., Birmingham, N.J.). Each experiment was repeated at least 3 times. Error bars represent standard deviations from the mean. […] The data were processed using Origin 7.0 (MicroCal Software, Inc., Northampton, Mass.).

SEVI fibrils [2] = biological target: T1, SEVI fibrils; experiment: Example 3: fluorescence assay, Kd of monomer and oligomers 1-5 to SEVI fibrils; type: binding; conditions: Example 3, Table 2, estimated
Description: To test whether binding affinity/avidity is reduced in oligomeric forms, the binding of monomeric and oligomeric forms was assayed to determine the affinity/avidity constants (Kd) for the binding of monomer and oligomers 1-5 to amyloid fibrils formed from SEVI peptides.

SEVI fibrils [3] = biological target: T1, SEVI fibrils; experiment: ThT fluorescence stability of preformed SEVI fibrils; conditions: 3 h incubation
Source text: After that time, fibrillar structures were examined by ThT fluorescence. ThT changes in fluorescence intensity when intercalated into the β-sheet structure common to amyloid fibrils; therefore, ThT fluorescence serves as a surrogate measure for fibrillar structure of SEVI and for the stability of SEVI fibrils.

HIV-1IIIB [4] = conditions: previously reported value for BTA-EG6; cited from earlier work
SiHa cells = experiment: Semen-mediated chemokine release from SiHa cells (ELISA); type: cell-based; conditions: pooled human semen, 33 μg/ml BTA-EG6, 6 h
Description: (§2) Supernatant was collected at 6 and 24 h, and the production of the chemokines IL-8 and Mip-3α was measured by ELISA (R&D Systems). […] After 6 h, supernatants were collected, and the production of the chemokines IL-8 and Mip-3α was measured by ELISA (R&D systems, Minneapolis, Minn.).
After 6 h, supernatants were collected and analyzed for production of IL-8 or MIP-3α.

HIV-1ADA [5] = experiment: SEVI-mediated enhancement of HIV-1 ADA infection, CEM-M7 cells, luciferase; type: cell-based
Description: Treated virions were then added to 5×10^4 CEM-M7 cells/well in 96-well flat-bottomed tissue culture plates. After 2 h, the medium axis were replaced. Infection was assayed after 48 h by quantifying luciferase expression using the Promega Dual-Luciferase assay and a Beckman Coulter DTX880 plate reader.

[6] = test system: cervical epithelial cell lines SiHa, A2En, 3EC1; type: cell-based, human
Source text: For a compound to be a legitimate HIV-1 microbicide candidate, it must not have toxic or inflammatory effects on the cervical […]. Loss of this protective layer leads to an increased ability for HIV-1 to cross the mucosal barrier, and inflammatory effects drive recruitment of HIV-1 target cells, further decreasing the natural barriers against successful transmission of HIV. […] To do this, the following cell lines were used: 1) SiHa cells, a cervical carcinoma cell line; 2) A2En cells, a primary cell-derived line from the endocervical […]; and 3) 3EC1 cells, a primary cell-derived line from the ectocervical […]. […] Viability was assessed at 24 h by using the resazurin cytotoxicity assay. Resazurin cytotoxicity data were confirmed by trypan blue counts of viable cells.

A2En cells = experiment: HIV-1 BaL + SEVI chemokine release from A2En cells (ELISA); type: cell-based, human; conditions: HIV-1BAL virions + SEVI
Description: as §2

[7] = test system: cervical epithelial cell lines SiHa, A2En, 3EC1; type: cell-based, human; remark: listed apart in the source
Description: Cytokine and chemokine production was assessed at 12 h by ELISA (R&D systems). Cells were also treated with 0.1% nonoxynol-9 as a positive control for cytotoxicity and with 0.1 μg/ml FSL1, a synthetic diacylated lipoprotein derived from Mycoplasma salivarium (InvivoGen, San Diego, Calif.), as a positive control for chemokine production.
Nonoxynol-9 (non-9), a spermicide, was used as a positive control. […] Cell culture supernatants were then assessed for the presence of the inflammatory cytokines and chemokines Mip-3α (FIG. 5B), IL-8 (FIG. 16C), IL-1β, and TNF-α.

HIV-1IIIB [8] = experiment: Semen-mediated enhancement of HIV-1 IIIB infection, CEM cells; type: cell-based; conditions: HIV-1 IIIB preincubated with 50% semen, diluted 15 fold onto CEM cells
Description: (§1) After 10 minutes, the stocks were diluted 15 fold and incubated with CEM 5.25 cells.

HIV-1ADA [9] = experiment: Semen-mediated enhancement of HIV-1 ADA infection, CEM-M7 cells; type: cell-based
Description: After 15 min, the semen and virus mixture was diluted 1:15 into 5×10^4 CEM-M7 cells/well in a 96-well plate. Cells were washed after 1 h, and infection was assayed at 48 h as above.
As human semen has been reported to be toxic to cultured cells, a protocol that minimized this toxicity was used. Pooled human semen was added to HIV-1IIIB virus in a 1:1 dilution. After 15 min, this solution was added to cells at a 1:15 dilution for a final concentration of 3.3%.

[10] = biological target: T3, aggregated Alzheimer disease-related Aβ(1-42) peptides (Homo sapiens, UniProt P05067); experiment: Fluorescence binding assay of BTA-EG6 to aggregated Aβ(1-42) peptides; conditions: same fluorescence binding assay
T3 construct: aggregated Alzheimer disease-related Aβ(1-42) peptides
T3 sequence (P05067 672-713 limits assumed): as above
Source text: Error bars represent standard deviations from the mean.

HIV-1BaL = experiment: SEVI-mediated enhancement of HIV-1 BaL infection of PBMCs, p24; type: cell-based
Description: Cells were washed at 3 h, and infection was analyzed at day 4 using the HIV-1 p24 antigen capture assay (Advanced Bioscience Laboratory).

SEVI fibrils [11] = biological target: T1, SEVI fibrils; experiment: Flow cytometry: binding of SEVI-biotin fibrils to the Jurkat cell surface; type: cell-based; conditions: 1 h; for MFI (mean fluorescent intensity): Jurkat cells + SEVI-biotin
Description: Cells were incubated for 1 h at 37° C., washed, and stained for 1 h with a covalent conjugate of streptavidin and fluorescein isothiocyanate (SA-FITC). Cells were washed and run on an Accuri C6 Flow Cytometer (Accuri Cytometers, Ann Arbor, Mich.). Data were analyzed using FlowJo (TreeStar Inc, Ashland, Oreg.).
After that time, fibrillar structures were examined by ThT fluorescence. ThT changes in fluorescence intensity when intercalated into the β-sheet structure common to amyloid fibrils; therefore, ThT fluorescence serves as a surrogate measure for fibrillar structure of SEVI and for the stability of SEVI fibrils. […] Binding of the fibrils to the cell surface was detected using SA-FITC. […] Surface-bound fibrils were detected with SA-FITC and measured by flow cytometry. Results are shown as percentage of cells with bound fibrils (SA-FITC+) as well as mean fluorescent intensity (MFI).

HIV-1ADA [12] = experiment: Virus binding assay (p24), HIV-1 ADA virions; type: cell-based; conditions: A2En endocervical cells, with SEVI
Description: After 90 min, cells were washed to remove any unbound virus, and bound virions were detected using an HIV-1 p24 antigen capture assay (Advanced Bioscience Laboratory).
Surface-bound virions were then measured by p24 ELISA after washing off unbound virus. […] Additionally, this experiment was performed using A2En cells, a primary cell-derived endocervical cell line.

HIV-1 IIIB = experiment: Virus binding assay (p24), HIV-1 IIIB virions; type: cell-based; conditions: Jurkat cells; for Inhibition of SEVI-enhanced binding of HIV-1 virions to the cell surface (p24 ELISA): with SEVI, 90 min
Description: as §1

SEVI fibrils [13] = biological target: T1, SEVI fibrils; experiment: Fluorescence polarization: displacement of FITC-heparin from SEVI fibrils; type: binding; conditions: SEVI + 16 μg/ml FITC-heparin, 1 h room temperature
Description: Samples were incubated 1 h at room temperature and read on a PerkinElmer Life Sciences Envision 2012 multilabel reader (PerkinElmer, Waltham, Mass.) at an excitation λ=480 nm and emission λ=535 nm. The horizontal and vertical polarized fluorescence intensities were recorded, and the calculated polarization was determined in millipolarization units.
Samples were incubated for 1 hour at room temperature and polarized fluorescence was measured.

HIV-1IIIB [14] = experiment: SEVI-mediated enhancement of HIV-1 IIIB infection, CEM-M7 (CEM 5.25) cells, luciferase; type: cell-based; conditions: for Inhibition of SEVI-mediated enhancement of HIV-1 infection (luciferase): CEM cells, with SEVI fibrils, increasing concentrations
Description: After 2 h, the medium […] were replaced.

HIV-IIIB = experiment: Screening hits: SEVI-mediated enhancement of HIV-IIIB infection, CEM-M7 cells; type: cell-based, HIV-1; conditions: 50 μM, 15 μg/mL SEVI, 48 hours
Description: Each of the selected compound shown below was incubated at 50 μM with 15 μg/mL of SEVI for 10 minutes. HIV-IIIB was then added and incubated for an additional 10 minutes prior to being added to CEM-M7 cells. After two hours the inoculum was removed and the cells washed with PBS. The cells were incubated for an additional 48 hours and then HIV infection was assessed by luciferase activity. Luciferase activity is graphed for each of the selected compounds in FIG. 29.
A high throughput assay was established to identify SEVI-binding compounds.

[15] = Table 3, 5% DMSO/PBS, read-out: Kd (nM) to Aβ(1-42) fibrils
[16] = heparin (100 μg/ml) positive control

Cc1ccc2nc(-c3ccc(NCCC(=O)NCCOCCOCCOCCOCCC(=O)NCCN(CCNC(=O)CCOCCOCCOCCOCCNC(=O)CCNc4ccc(-c5nc6ccc(C)cc6s5)cc4)CCNC(=O)CCOCCOCCOCCOCCNC(=O)CCNc4ccc(-c5nc6ccc(C)cc6s5)cc4)cc3)sc2c1 [Compound 3, BTA Trimer]
Kd (SEVI fibrils [1]): 40 ± 6 nM | Kd (Aβ(1-42) fibrils; [15]): 26 ± 6 nM | Kd (SEVI fibrils [2]): 40 ± 6 nM

Cc1ccc2nc(-c3ccc(NCCOCCOCCOCCOCCOCCO)cc3)sc2c1 [BTA-EG6]
Effect on stability of preformed SEVI fibrils (ThT fluorescence) (SEVI fibrils [3]): no effect on fibrillar stability | Concentration required to completely neutralize the effects of SEVI on HIV-1 infection (HIV-1IIIB [4]): 44 µM | Effect on semen-stimulated IL-8 and MIP-3α production (SiHa cells): no inhibitory effect on semen-stimulated chemokine production | Inhibition of SEVI-mediated enhancement of HIV-1 infection (luciferase) (HIV-1ADA [5]; CEM-M7, 15 μg/ml SEVI): significant dose-dependent inhibition | Effect on infectivity of HIV alone (HIV-1ADA [5]; CEM-M7, absence of SEVI): No effect on the infectivity of HIV-1ADA was observed | Cell viability (Alamar Blue) [6]: did not affect the cell viability | Cell viability (resazurin cytotoxicity assay) [6]: did not have any effects on cell viability | Inhibition of SEVI-increased IL-8 release (A2En cells): able to inhibit this release | Cytokine production (IL-1b, MIP-3a, TNF-a) by ELISA [7]: do not induce cytokine production | Inhibition of semen-mediated enhancement of HIV infection (luciferase) (HIV-1IIIB [8]): capable of inhibiting semen mediated enhancement of HIV infection; also recorded: efficiently inhibited the semen mediated enhancement of HIV-1 infection | Inhibition of semen-mediated enhancement of HIV infection (luciferase) (HIV-1ADA [9]): this effect extended to infection with an R5 virus | Kd [10]: 111 ± 32 nM | Inhibition of SEVI-mediated enhancement of HIV-1 infection (p24) (HIV-1BaL; HIV-1BAL, 15 μg/ml SEVI): able to inhibit SEVI-mediated enhancement of HIV-1 infection in PBMCs | Effect on infectivity of HIV alone (HIV-1BaL; HIV-1BaL, absence of SEVI): no effect on the infectivity of HIV-1BaL | SA-FITC+ (%), percentage of cells with bound fibrils (SEVI fibrils [11]; BTA-EG6 high (27 μg/ml)): 21.2% | SA-FITC+ (%), percentage of cells with bound fibrils (SEVI fibrils [11]; BTA-EG6 low (5.5 μg/ml)): 36.6% | MFI (mean fluorescent intensity) (SEVI fibrils [11]; BTA-EG6 high (27 μg/ml)): 38.7 | MFI (mean fluorescent intensity) (SEVI fibrils [11]; BTA-EG6 low (5.5 μg/ml)): 95.3 | Inhibition of SEVI-enhanced binding of HIV-1 virions to the cell surface (p24 ELISA) (HIV-1ADA [12]): this effect was inhibited | Effect on binding of HIV virions to the cell surface (HIV-1 IIIB; absence of SEVI): no effect on the binding of HIV virions to the cell surface | Inhibition of SEVI-enhanced binding of HIV-1 virions to the cell surface (p24 ELISA) (HIV-1 IIIB): decrease in HIV-1 binding to the cells | Inhibition of SEVI-enhanced binding of HIV-1 virions to the cell surface (p24 ELISA) (HIV-1 IIIB; listed as BTAEG6): efficiently abrogated | Binding to SEVI fibrils, displacement of FITC-heparin (decrease of polarization) (SEVI fibrils [13]): capable of binding SEVI; also recorded: able to displace fluorescent heparin from the SEVI fibrils in a dose-dependent fashion | Inhibition of SEVI-mediated enhancement of HIV-1 infection (luciferase) (HIV-1IIIB [14]): decreasing levels of luciferase activity; also recorded: reducing infectivity nearly back to baseline levels | Effect on infectivity of HIV alone (HIV-1IIIB [14]; CEM-M7, absence of SEVI): no effect on the infectivity of HIV virus alone

COc1ccc(Cl)cc1-c1ccc(-c2c(C#N)c(N)n3c(nc4ccccc43)c2C#N)o1 [Compound 8E2]
Inhibition of SEVI-mediated enhancement of HIV infection (luciferase) (HIV-IIIB): inhibited SEVI-mediated enhancement of HIV infection

Cc1ccc2nc(-c3ccc(NCCC(=O)NCCOCCOCCOCCOCCC(=O)NCCNC(=O)CCOCCOCCOCCOCCNC(=O)CCNc4ccc(-c5nc6ccc(C)cc6s5)cc4)cc3)sc2c1 [Compound 2, BTA Dimer]
Kd (SEVI fibrils [1]): 69 ± 1 nM | Fold lower Kd than monomer 1, Aβ(1-42) fibrils (Aβ(1-42) fibrils): 8 fold | Kd (Aβ(1-42) fibrils): 29 ± 4 nM | Kd (SEVI fibrils [2]): 75 ± 10 nM

CCNC(=O)CCOCCOCCOCCOCCNC(=O)CCNc1ccc(-c2nc3ccc(C)cc3s2)cc1 [Compound 1, BTA Monomer]
Kd (SEVI fibrils [1]): 236 ± 90 nM | Kd (Aβ(1-42) fibrils; [15]): 235 ± 75 nM | Kd (SEVI fibrils [2]): 107 ± 16 nM

heparin [reference compound]
SA-FITC+ (%), percentage of cells with bound fibrils (SEVI fibrils [11]; [16]): 31.7% | MFI (mean fluorescent intensity) (SEVI fibrils [11]; [16]): 376 | Binding to SEVI fibrils, displacement of FITC-heparin (decrease of polarization) (SEVI fibrils [13]): the polarization decreased

Cc1ccc2nc(-c3ccc(NCCOCCOCCOCCO)cc3)sc2c1 [BTA-EG4]
Cell viability (Alamar Blue) [6]: did not affect the cell viability | Cytokine production (IL-1b, MIP-3a, TNF-a) by ELISA [7]: do not induce cytokine production | Inhibition of semen-mediated enhancement of HIV infection (luciferase) (HIV-1IIIB [8]): capable of inhibiting semen mediated enhancement of HIV infection | Inhibition of SEVI-enhanced binding of HIV-1 virions to the cell surface (p24 ELISA) (HIV-1 IIIB): decrease in HIV-1 binding to the cells | Binding to SEVI fibrils, displacement of FITC-heparin (decrease of polarization) (SEVI fibrils [13]): capable of binding SEVI | Inhibition of SEVI-mediated enhancement of HIV-1 infection (luciferase) (HIV-1IIIB [14]): decreasing levels of luciferase activity

COc1ccc2cc3[n+](cc2c1OC)CCc1cc2c(cc1-3)OCO2 [Compound 11A5]
Inhibition of SEVI-mediated enhancement of HIV infection (luciferase) (HIV-IIIB): inhibited SEVI-mediated enhancement of HIV infection

CCNC(=O)C(CCCCNC(=O)CCOCCOCCOCCOCCNC(=O)CCNc1ccc(-c2nc3ccc(C)cc3s2)cc1)NC(=O)C(CCCCNC(=O)CCOCCOCCOCCOCCNC(=O)CCNc1ccc(-c2nc3ccc(C)cc3s2)cc1)NC(=O)C(CCCCNC(=O)CCOCCOCCOCCOCCNC(=O)CCNc1ccc(-c2nc3ccc(C)cc3s2)cc1)NC(=O)CCOCCOCCOCCOCCNC(=O)CCNc1ccc(-c2nc3ccc(C)cc3s2)cc1 (stereo not shown) [Compound 4, BTA Tetramer]
Kd (SEVI fibrils [1]): 59 ± 6 nM | Kd (Aβ(1-42) fibrils; [15]): 20 ± 5 nM | Kd (SEVI fibrils [2]): 56 ± 6 nM
